Key:
[1] = tested on: non-mucoid P. aeruginosa strains from clinically relevant O-antigen serotypes; experiment: OPK assay, non-mucoid clinical isolates; type: cell-based, Pseudomonas aeruginosa; settings: FIG. 2C
Protocol: (§1) This example describes the evaluation of prioritized human IgG1 antibodies to promote OPK of P. aeruginosa. […] OPK assays were performed as described in (DiGiandomenico, A., et al., Infect Immun 72, 7012-7021 (2004)), with modifications. Briefly, assays were performed in 96-well plates using 0.025 ml of each OPK component; P. aeruginosa strains; diluted baby rabbit serum; differentiated HL-60 cells; and monoclonal antibody. In some OPK assays, luminescent P. aeruginosa strains, which were constructed as described (Choi, K. H., et al., Nat Methods 2, 443-448 (2005)), were used. Luminescent OPK assays were performed as described above but with determination of relative luciferase units (RLUs) using a Perkin Elmer ENVISION Multilabel plate reader (Perkin Elmer).
(§2) The ability of Cam-003 to mediate OPK activity against representative non-mucoid strains from clinically relevant O-antigen serotypes and against mucoid P. aeruginosa strains which were derived from cystic fibrosis patients was evaluated.

[2] = tested on: Psl (enriched carbohydrate purified from PAO1ΔwbpL/algD/pelA); experiment: Psl capture binding assay (FORTEBIO OCTET 384); parameters: species or system Pseudomonas aeruginosa; settings: FIG. 3K
Protocol: To confirm that all of the antibodies bound to the same antigen, a Psl capture binding assay was performed using a FORTEBIO® OCTET® 384 instrument as described above. The antigen was proteinase K-treated enriched carbohydrate purified from PAO1ΔwbpL/algD/pelA (O-antigen-, alginate- and Pel exopolysaccharide-deficient). Individual antibodies were bound to aminopropylsilane biosensors followed by blocking and the addition of the enriched carbohydrate antigen. After washing to remove unbound antigen, binding of unlabelled mAbs to captured antigen was assessed.

[3] = tested on: P. aeruginosa PAO1 and isogenic mutants; experiment: Indirect ELISA on plates coated with P. aeruginosa strains; type: binding, Pseudomonas aeruginosa
Description: In addition, duplication of VH CDR3 loop sequences in the libraries (a measure of clonal enrichment during selection), was also found to be higher in the patient library, reaching 88-92%, compared to 15-25% in the naïve library at round 3 (FIG. 1D). Individual scFv phage from affinity selections were next screened by ELISA for reactivity to P. aeruginosa heterologous serotype strains (FIG. 1E). ELISA plates (Nunc; MAXISORP™) were coated with P. aeruginosa strains from overnight cultures as described (DiGiandomenico, A., et al., Infect Immun 72, 7012-7021 (2004)). Diluted antibodies were added to blocked plates for 1 hour, washed, and treated with HRP-conjugated anti-human secondary antibodies for 1 hour followed by development and analysis as described (Ulbrandt, N. D., et al., J Virol 80, 7799-7806 (2006)). The dominant species of phage obtained from whole cell selections with both libraries yielded serotype specific reactivity (data not shown).
This example describes identification of the target of anti-P. aeruginosa antibodies derived from phenotypic screening. Target analysis was performed to test whether the serotype independent antibodies targeted protein or carbohydrate antigens. […] Isogenic mutants were constructed in genes responsible for O-antigen, alginate, and LPS core biosynthesis; wbpL (O-antigen-deficient); wbpL/algD (O-antigen and alginate deficient); rmlC (O-antigen-deficient and truncated outer core); and galU (O-antigen-deficient and truncated inner core). P. aeruginosa mutants were constructed based on the allele replacement strategy described by Schweizer (Schweizer, H. P., Mol Microbiol 6, 1195-1204 (1992); Schweizer, H. D., Biotechniques 15, 831-834 (1993)). Vectors were mobilized from E. coli strain 517.1 into P. aeruginosa strain PAO1; recombinants were isolated as described (Hoang, T. T., et al., Gene 212, 77-86 (1998)). Gene deletion was confirmed by PCR. P. aeruginosa mutants were complemented with pUCP30T-based constructs harboring wild type genes. […] The rmlC and galU genes were recently shown to be required for biosynthesis of the Psl exopolysaccharide, a repeating pentasaccharide polymer consisting of D-mannose, L-rhamnose, and D-glucose. Cam-003 binding to an isogenic pslA knockout PAO1ΔpslA, was tested, as pslA is required for Psl biosynthesis (Byrd, M. S., et al., Mol Microbiol 73, 622-638 (2009)). Binding of Cam-003 to PAO1ΔpslA was abolished when tested by ELISA (FIG. 3B) and FACS (FIG. 3C), while the LPS molecule in this mutant was unaffected (FIG. 3D). Binding of Cam-003 was restored in a PAO1ΔwbpL/algD/pslA triple mutant complemented with pslA (FIG. 3E) as was the ability of Cam-003 to mediate opsonic killing to complemented PAO1ΔpslA in contrast to the mutant (FIGS. 3F and 3G). Binding of Cam-003 antibody to a Pcl exopolysaccharide mutant was also unaffected further confirming Psl as our antibody target (FIG. 3E). Binding assays confirmed that the remaining antibodies also bound Psl (FIGS. 3H and 3I).

[4] = tested on: mucoid P. aeruginosa strains derived from cystic fibrosis patients; experiment: OPK assay, mucoid isolates; type: cell-based, Pseudomonas aeruginosa; settings: FIG. 2D
Protocol: as §1, §2

Which results are given for “Cam-003: human IgG1 anti-Psl monoclonal antibody, VH SEQ ID NO: 1 and VL SEQ ID NO: 2”?
OPK activity [1]: mediated potent OPK of all non-mucoid clinical isolates tested; reactivity of unlabelled mAb to captured Psl [2]: reacted; capture of Psl antigen by biosensor-bound antibody ([2]; antibody bound to aminopropylsilane biosensors): capable of capturing antigen; reactivity to purified LPS ([3]; LPS purified from PAO1): not observed; ELISA binding ([3]; PAO1ΔpslA, FIG. 3B): abolished; ELISA binding ([3]; PAO1ΔwbpL/algD/pslA triple mutant complemented with pslA, FIG. 3E): restored; ELISA binding ([3]; Pcl exopolysaccharide mutant, FIG. 3E): unaffected; ELISA binding ([3]; rmlC and galU mutants, FIGS. 3A, 3J): abolished; ELISA binding ([3]; wbpL or wbpL/algD double mutant, FIGS. 3A, 3J): unaffected; OPK activity [4]: mediated potent killing of all mucoid P. aeruginosa isolates that were tested
